Measurements reported in patent US10231453B2, “5-substituted imidazole derivatives” (BAYER CROPSCIENCE AKTIENGESELLSCHAFT, priority 2015, dated 2019).

Assays:
[1] = test system: Botrytis cinerea; assay: In vivo preventive test on Botrytis cinerea (grey mould) on gherkin, Examples B, Q1 and R2; conditions: Botrytis cinerea, 500 ppm of active ingredient, preventive spray, evaluated 4 to 5 days after inoculation, read-out: efficacy
[2] = test system: Alternaria solani; assay: In vivo preventive Alternaria test (tomatoes), Example H; conditions: 72 h, 100 ppm of active ingredient, preventive spray, evaluated 3 days after inoculation, read-out: efficacy
[3] = test system: Septoria tritici; assay: In vivo preventive test on Septoria tritici (leaf spot on wheat), Examples E, Q3 and R5; conditions: Zymoseptoria tritici, 576 h, 500 ppm of active ingredient; wheat, preventive spray, evaluated 24 days after inoculation; read-out: efficacy
[4] = test system: Puccinia recondita; assay: In vivo preventive test on Puccinia recondita (brown rust on wheat), Examples C and R3; conditions: Puccinia recondita, 264 h; 500 ppm of active ingredient; wheat, preventive spray, evaluated 11 days after inoculation; read-out: efficacy
[5] = test system: Uromyces appendiculatus; assay: In vivo preventive test on Uromyces appendiculatus (bean rust), Examples G and R7; conditions: 264 h, 500 ppm of active ingredient, bean, preventive spray, evaluated 11 days after inoculation, read-out: efficacy
[6] = test system: Pyrenophora teres; assay: In vivo preventive test on Pyrenophora teres (net blotch on barley), Examples D, Q2 and R4; conditions: Pyrenophora teres, 336 h, 500 ppm of active ingredient, preventive spray, evaluated 14 days after inoculation, read-out: efficacy
[7] = test system: Phakopsora pachyrhizi; assay: In vivo preventive Phakopsora test (soybeans), Example I; conditions: 168 h, 100 ppm of active ingredient, preventive spray, evaluated 7 days after inoculation, read-out: efficacy
[8] = test system: Venturia inaequalis; assay: In vivo preventive Venturia test (apples), Example J; conditions: 240 h, read-out: efficacy
Method: After the spray coating has dried on, the plants are inoculated with an aqueous conidia suspension of the causal agent of apple scab (Venturia inaequalis) and then remain for 1 day in an incubation cabinet at approximately 20° C. and a relative atmospheric humidity of 100%.
The plants are then placed in a greenhouse at approximately 21° C. and a relative atmospheric humidity of approximately 90%.
The test is evaluated 10 days after the inoculation.

[9] = test system: Alternaria brassicae; assay: In vivo preventive test on Alternaria brassicae (leaf spot on radish), Examples A and R1; conditions: Alternaria brassicae, 144 h, 500 ppm of active ingredient, preventive spray, evaluated 6 days after inoculation, read-out: efficacy
[10] = test system: Sphaerotheca fuliginea; assay: In vivo preventive test on Sphaerotheca fuliginea (powdery mildew on cucurbits), Examples F and R6; conditions: Podosphaera fuliginea, 360 h; 500 ppm of active ingredient; gherkin, preventive spray, evaluated 15 days after inoculation; read-out: efficacy
[11] = test system: Pyricularia oryzae; assay: whole plant or invertebrate; format: in vivo; conditions: 192 h, read-out: efficacy
[12] = Measurement of LogP values by HPLC on reversed phase columns (EEC directive 79/831 Annex V.A8); format: physicochemical; conditions: method [a]: LC-UV, acidic range, 0.1% formic acid in water and acetonitrile as eluent; Table 1
Method: Measurement of Log P values was performed as outlined above.

[13] = test system: Blumeria graminis fsp. hordei; assay: In vivo preventive Blumeria test (barley), Example K; conditions: 168 h, 500 ppm of active ingredient, preventive spray, evaluated 7 days after inoculation, read-out: efficacy
Excerpt: After the spray coating has been dried, the plants are dusted with spores of Blumeria graminis fsp. hordei.

[14] = test system: Fusarium graminearum; assay: whole plant or invertebrate; format: in vivo; conditions: in Hordeum vulgare, 120 h, read-out: efficacy

## OC(Cc1ccc(Cl)cc1Cl)(Cn1cncc1Cl)C1(Cl)CC1 (centres unmarked) [Example I-69]
[1]
  pest or weed control at 500 ppm: 80 to 89%
[2]
  pest or weed control at 100 ppm: 90 to 100%
[3]
  pest or weed control at 500 ppm: 80 to 89%
[4]
  pest or weed control at 500 ppm: 80 to 89%
[5]
  pest or weed control at 500 ppm: 90 to 100%
[6]
  pest or weed control at 500 ppm: 80 to 89%
[7]
  pest or weed control at 100 ppm: 90 to 100%
[8]
  pest or weed control at 100 ppm: 90 to 100%
[9]
  pest or weed control at 500 ppm: 70 to 79%
[10]
  pest or weed control at 500 ppm: 90 to 100%

## N#Cc1cncn1CC(O)(Cc1ccccc1Cl)CC1CC1 (centres unmarked) [Example I-84]
[3]
  pest or weed control at 500 ppm: 90 to 100%
[4]
  pest or weed control at 500 ppm: 90 to 100%
[5]
  pest or weed control at 500 ppm: 90 to 100%
[6]
  pest or weed control at 500 ppm: 80 to 89%
[11]
  pest or weed control at 500 ppm: 70 to 79%
[12]
  chromatographic logP: 2.84
[13]
  pest or weed control at 500 ppm: 90 to 100%
[10]
  pest or weed control at 500 ppm: 90 to 100%

## N#Cc1cncn1CC(O)(Cc1ccncc1C(F)(F)F)C1(Cl)CC1 (centres unmarked) [Example I-92]
[3]
  pest or weed control at 500 ppm: 90 to 100%
[4]
  pest or weed control at 500 ppm: 80 to 89%
[5]
  pest or weed control at 500 ppm: 90 to 100%
[11]
  pest or weed control at 500 ppm: 80 to 89%
[12]
  chromatographic logP: 2.18
[13]
  pest or weed control at 500 ppm: 90 to 100%
[10]
  pest or weed control at 500 ppm: 90 to 100%

## N#Cc1cncn1CC(O)(Cc1ccc(F)c(Cl)c1F)C1(Cl)CC1 (centres unmarked) [Example I-101]
[2]
  pest or weed control at 100 ppm: 90 to 100%
[3]
  pest or weed control at 500 ppm: 90 to 100%
[4]
  pest or weed control at 500 ppm: 90 to 100%
[5]
  pest or weed control at 500 ppm: 90 to 100%
[6]
  pest or weed control at 500 ppm: 90 to 100%
[7]
  pest or weed control at 100 ppm: 90 to 100%
[12]
  chromatographic logP: 3.17
[13]
  pest or weed control at 500 ppm: 90 to 100%
[8]
  pest or weed control at 100 ppm: 80 to 89%
[10]
  pest or weed control at 500 ppm: 90 to 100%

## Cc1ccc(CC(O)(Cn2cncc2C#N)C2(Cl)CC2)c(F)c1 (centres unmarked) [Example I-107]
[1]
  pest or weed control at 500 ppm: 90 to 100%
[2]
  pest or weed control at 100 ppm: 90 to 100%
[3]
  pest or weed control at 500 ppm: 90 to 100%
[4]
  pest or weed control at 500 ppm: 80 to 89%
[5]
  pest or weed control at 500 ppm: 80 to 89%
[6]
  pest or weed control at 500 ppm: 90 to 100%
[7]
  pest or weed control at 100 ppm: 80 to 89%
[12]
  chromatographic logP: 2.97
[8]
  pest or weed control at 100 ppm: 80 to 89%
[10]
  pest or weed control at 500 ppm: 90 to 100%

## CC1(C(O)(Cc2cccc(F)c2F)Cn2cncc2C#N)CC1 (centres unmarked) [Example I-144]
[1]
  pest or weed control at 500 ppm: 90 to 100%
[3]
  pest or weed control at 500 ppm: 90 to 100%
[4]
  pest or weed control at 500 ppm: 90 to 100%
[5]
  pest or weed control at 500 ppm: 90 to 100%
[6]
  pest or weed control at 500 ppm: 90 to 100%
[14]
  pest or weed control at 500 ppm: 90 to 100%
[11]
  pest or weed control at 500 ppm: 70 to 79%
[12]
  chromatographic logP: 2.75
[13]
  pest or weed control at 500 ppm: 90 to 100%
[10]
  pest or weed control at 500 ppm: 90 to 100%

## Cc1cc(F)ccc1CC(O)(Cn1cncc1C#N)C1(Cl)CC1 (centres unmarked) [Example I-153]
[2]
  pest or weed control at 100 ppm: 90 to 100%
[3]
  pest or weed control at 500 ppm: 90 to 100%
[4]
  pest or weed control at 500 ppm: 90 to 100%
[5]
  pest or weed control at 500 ppm: 90 to 100%
[6]
  pest or weed control at 500 ppm: 80 to 89%
[7]
  pest or weed control at 100 ppm: 90 to 100%
[8]
  pest or weed control at 100 ppm: 80 to 89%
[10]
  pest or weed control at 500 ppm: 90 to 100%

## Cc1cc(F)ccc1CC(O)(Cn1cncc1Cl)C1(Cl)CC1 (centres unmarked) [Example I-155]
[1]
  pest or weed control at 500 ppm: 90 to 100%
[2]
  pest or weed control at 100 ppm: 90 to 100%
[3]
  pest or weed control at 500 ppm: 90 to 100%
[4]
  pest or weed control at 500 ppm: 80 to 89%
[5]
  pest or weed control at 500 ppm: 90 to 100%
[6]
  pest or weed control at 500 ppm: 70 to 79%
[7]
  pest or weed control at 100 ppm: 90 to 100%
[12]
  chromatographic logP: 2.46
[8]
  pest or weed control at 100 ppm: 90 to 100%
[9]
  pest or weed control at 500 ppm: 70 to 79%
[10]
  pest or weed control at 500 ppm: 90 to 100%

## N#Cc1cncn1CC(O)(Cc1cc(F)cc(F)c1)C1(Cl)CC1 (centres unmarked) [Example I-156]
[3]
  pest or weed control at 500 ppm: 90 to 100%
[4]
  pest or weed control at 500 ppm: 90 to 100%
[5]
  pest or weed control at 500 ppm: 90 to 100%
[6]
  pest or weed control at 500 ppm: 80 to 89%
[14]
  pest or weed control at 500 ppm: 80 to 89%
[12]
  chromatographic logP: 2.86
[13]
  pest or weed control at 500 ppm: 90 to 100%
[10]
  pest or weed control at 500 ppm: 90 to 100%

## OC(Cc1ccc(F)cc1)(Cn1cncc1Cl)C1(Cl)CC1 (centres unmarked) [Example I-158]
[1]
  pest or weed control at 500 ppm: 90 to 100%
[2]
  pest or weed control at 100 ppm: 90 to 100%
[3]
  pest or weed control at 500 ppm: 90 to 100%
[4]
  pest or weed control at 500 ppm: 80 to 89%
[5]
  pest or weed control at 500 ppm: 90 to 100%
[6]
  pest or weed control at 500 ppm: 90 to 100%
[7]
  pest or weed control at 100 ppm: 90 to 100%
[12]
  chromatographic logP: 2.13
[10]
  pest or weed control at 500 ppm: 90 to 100%

## N#Cc1cncn1CC(O)(Cc1cc(F)ncc1Cl)C1(Cl)CC1 (centres unmarked) [Example I-165]
[3]
  pest or weed control at 500 ppm: 90 to 100%
[4]
  pest or weed control at 500 ppm: 90 to 100%
[5]
  pest or weed control at 500 ppm: 90 to 100%
[11]
  pest or weed control at 500 ppm: 90 to 100%
[12]
  chromatographic logP: 2.38
[13]
  pest or weed control at 500 ppm: 90 to 100%
[10]
  pest or weed control at 500 ppm: 90 to 100%
